Test results from PubChem BioAssay (NCI).
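In this assay, cells in 96-well plates receive the compound at five concentrations for 48 hours. Endpoints are linearly interpolated between the surrounding concentrations. TGI: total growth inhibition.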

What was measured:
Assay in all cases: NCI tumour cell line growth inhibition, 48 h
CCRF-CEM leukemia = test system: CCRF-CEM leukemia
DU-145 prostate = test system: DU-145 prostate
DLD-1 colon = test system: DLD-1 colon
DMS 114 small cell lung = test system: DMS 114 small cell lung
DMS 273 small cell lung = test system: DMS 273 small cell lung
HOP-18 NSCLC = test system: HOP-18 NSCLC
KM20L2 colon = test system: KM20L2 colon
LXFL 529 NSCLC = test system: LXFL 529 NSCLC
M19-MEL melanoma = test system: M19-MEL melanoma
XF 498 CNS = test system: XF 498 CNS
RXF-631 renal = test system: RXF-631 renal
SNB-78 CNS = test system: SNB-78 CNS

O=C1c2ccccc2C(=O)c2sc(Nc3cc(Cl)ccc3Cl)nc21
TGI (CCRF-CEM leukemia): > 100 µM
TGI (DU-145 prostate): 24.6 µM

O=C(c1ccccc1)c1cc(Cl)ccc1NCn1nnc2ccccc21
TGI (CCRF-CEM leukemia): > 100 µM
TGI (DLD-1 colon): > 100 µM
TGI (DMS 114 small cell lung): > 100 µM
TGI (DMS 273 small cell lung): > 100 µM
TGI (HOP-18 NSCLC): > 100 µM
TGI (KM20L2 colon): > 100 µM
TGI (LXFL 529 NSCLC): > 100 µM
TGI (M19-MEL melanoma): > 100 µM
TGI (XF 498 CNS): > 100 µM

COc1ccc(/C=N/Nc2nnc3c(n2)c2ccccc2c2nn(-c4ccccc4Cl)nc23)cc1
TGI (CCRF-CEM leukemia): > 100 µM
TGI (DU-145 prostate): > 100 µM

CN(/N=C\c1ccc2ccccc2c1)C1=NCCCN1
TGI (CCRF-CEM leukemia): 48.6 µM
TGI (DU-145 prostate): > 100 µM

COc1cc2c(cc1OC)C(=O)/C(=C/c1ccc(N(C)C)cc1)CC2
TGI (CCRF-CEM leukemia): > 10 µM
TGI (DU-145 prostate): > 10 µM

Cc1ccc2nc(C(=O)O)c(=O)[nH]c2c1
TGI (CCRF-CEM leukemia): > 100 µM
TGI (DU-145 prostate): > 100 µM

COC1OC(C(=O)O)C2OC(C)(C)OC12 (stereo not given)
TGI (CCRF-CEM leukemia): > 100 µM
TGI (DU-145 prostate): > 100 µM

O=C1C2CC[C@@H]3C(=O)C(Cl)(Cl)[C@@H]3CCC2C1(Cl)Cl (stereo not given in full)
TGI (CCRF-CEM leukemia): 63.8 µM
TGI (DU-145 prostate): > 100 µM

CSc1nc(C)c2c(n1)N(c1ccc(Cl)cc1)CC2
TGI (CCRF-CEM leukemia): > 100 µM
TGI (DU-145 prostate): > 100 µM

COC(=O)CC1CC2(C(=O)OC)c3[nH]c4ccccc4c3CCN2C1=O (stereo not given)
TGI (CCRF-CEM leukemia): > 100 µM
TGI (DLD-1 colon): > 100 µM
TGI (DMS 114 small cell lung): > 100 µM
TGI (DMS 273 small cell lung): > 100 µM
TGI (HOP-18 NSCLC): > 100 µM
TGI (KM20L2 colon): > 100 µM
TGI (LXFL 529 NSCLC): > 100 µM
TGI (M19-MEL melanoma): > 100 µM
TGI (RXF-631 renal): 31.3 µM
TGI (SNB-78 CNS): > 100 µM
TGI (XF 498 CNS): > 100 µM

CC(=O)N1c2cc(N=NN(C)C)ccc2NC(=O)CC1C (stereo not given)
TGI (CCRF-CEM leukemia): > 100 µM
TGI (DU-145 prostate): > 100 µM

CC(=O)O[C@H]1C(=O)[C@@]2(C)[C@H]([C@H](OC(=O)c3ccco3)[C@]3(O)C[C@H](OC(=O)[C@H](O)[C@@H](NC(=O)c4ccccc4)c4ccccc4)C(C)=C1C3(C)C)[C@]1(OC(C)=O)CO[C@@H]1C[C@@H]2O
TGI (CCRF-CEM leukemia): 0.837 µM
TGI (DU-145 prostate): > 25 µM

CC(CC=O)Nc1nn2c(=O)c3ccccc3nc2s1 (stereo not given)
TGI (CCRF-CEM leukemia): > 100 µM
TGI (DU-145 prostate): > 100 µM

Cc1cc2c(cc1Cl)Sc1n[nH]c(=O)n1S2(=O)=O
TGI (CCRF-CEM leukemia): > 100 µM
TGI (DU-145 prostate): > 100 µM

CCC1CN2CCc3c([nH]c4ccccc34)[C@@](C(=O)OC)(c3cc4c(cc3OC)N(C)C3C(O)(C(=O)OC)C(C(=O)OC)C5(CC)C=CCN6CCC43C65)C[C@@H](C2)[C@@H]1C(C)(C)C (stereo not given in full)
TGI (CCRF-CEM leukemia): > 5.53 µM
TGI (DU-145 prostate): 9.32 µM

C=CCNC1=C2C[C@@H](C)C[C@@H](OC)[C@H](OC(=O)CCN(C)C)[C@H](C)/C=C(\C)[C@@H](OC(N)=O)[C@H](OC)/C=C\C=C(/C)C(=O)NC(=CC1=O)C2=O
TGI (CCRF-CEM leukemia): > 55.3 µM

O=S(=O)(O)c1cc(O)c(N=Nc2ccc3ccccc3c2O)c2ccccc12
TGI (CCRF-CEM leukemia): > 100 µM
TGI (DU-145 prostate): 31.6 µM

CCOC(=O)c1cc2c3c(cc(OC)c2[nH]1)N(C(=O)OCC)CC3
TGI (CCRF-CEM leukemia): > 100 µM
TGI (DU-145 prostate): > 100 µM

CC[C@@]12CCC(=S)N(CCSc3ccccc3)[C@@H]1c1c(n(S(=O)(=O)c3ccc(OC)cc3)c3ccccc13)CC2
TGI (CCRF-CEM leukemia): > 100 µM
TGI (DU-145 prostate): > 100 µM

CN(C)C(=O)Oc1ccc(C(=S)Nc2ccccc2)cc1
TGI (CCRF-CEM leukemia): 79.6 µM
TGI (DU-145 prostate): > 100 µM

CC(C)=CCc1c2c(c(O)c3c(=O)c4c(oc13)-c1ccc(O)cc1OC4C=C(C)C)C=CC(C)(C)O2 (stereo not given)
TGI (CCRF-CEM leukemia): 15.5 µM
TGI (DU-145 prostate): 27.5 µM

COc1ccc(/C(CC2OC(=O)c3ccccc32)=N\NC(N)=O)cc1 (stereo not given)
TGI (CCRF-CEM leukemia): > 100 µM
TGI (DU-145 prostate): > 100 µM

O=c1[nH]c2ccc([N+](=O)[O-])cc2nc1/C(=N/Nc1ccccc1)C(O)c1ccco1 (stereo not given)
TGI (CCRF-CEM leukemia): > 100 µM
TGI (DLD-1 colon): > 100 µM
TGI (DMS 114 small cell lung): > 100 µM
TGI (DMS 273 small cell lung): > 100 µM
TGI (KM20L2 colon): > 100 µM
TGI (LXFL 529 NSCLC): > 100 µM
TGI (M19-MEL melanoma): > 100 µM
TGI (SNB-78 CNS): > 100 µM
TGI (XF 498 CNS): > 100 µM

CC(=O)NN(c1ccccc1)C1CCN(c2ccccc2)N1C(C)=O (stereo not given)
TGI (CCRF-CEM leukemia): > 10 µM
TGI (DU-145 prostate): > 10 µM

N#Cc1c(N)nc(Sc2ccccc2N)c(C#N)c1-c1ccccc1
TGI (DU-145 prostate): 52.3 µM

C=CCN1C(=O)CC(=O)N(NC2=NNC3(C(=O)N2)c2ccccc2-c2ccccc23)C1=S
TGI (CCRF-CEM leukemia): > 100 µM
TGI (DU-145 prostate): > 100 µM

COc1ccc(CC[N+]2(C)COc3cc4oc(=O)cc(C)c4cc3C2)cc1OC (stereo not given)
TGI (CCRF-CEM leukemia): > 100 µM
TGI (DU-145 prostate): > 100 µM

Cn1c(=O)c2c(nc(N/N=C3/SCC(=O)N3Cc3ccccc3)n2C)n(C)c1=O
TGI (CCRF-CEM leukemia): > 100 µM
TGI (DU-145 prostate): > 100 µM

CC(=O)N[C@@H](Cc1ccc(O)cn1)C(=O)NC1CCCCC1
TGI (CCRF-CEM leukemia): > 100 µM
TGI (DU-145 prostate): > 100 µM

COc1ccc(/C=N/NC(=S)Nc2cc(C)ccc2OC)cc1
TGI (CCRF-CEM leukemia): > 100 µM
TGI (DU-145 prostate): > 100 µM

COC(=O)C(=O)C(C(=O)C(=O)Nc1ccc(C)c(C)c1)c1nc2ccc([N+](=O)[O-])cc2[nH]c1=O (stereo not given)
TGI (CCRF-CEM leukemia): > 100 µM

CC(=O)[C@]1(O)Cc2c(O)c3c(c(O)c2[C@@H](OC2CC(N)C(O)C(C)O2)C1)C(=O)c1c(OCc2ccccc2)cccc1C3=O (stereo not given in full)
TGI (CCRF-CEM leukemia): 1.45 µM
TGI (DMS 114 small cell lung): 2.55 µM
TGI (DU-145 prostate): 3.4 µM
TGI (HOP-18 NSCLC): 3.33 µM
TGI (LXFL 529 NSCLC): 2.38 µM
TGI (SNB-78 CNS): 36.1 µM
TGI (XF 498 CNS): 14.5 µM

CCCCCCCCCCCCC1N=C(N)N2CCCC2=C1C(=O)OC (stereo not given)
TGI (CCRF-CEM leukemia): 3.89 µM
TGI (DU-145 prostate): 21.4 µM

Oc1ccc(SCc2cc(O)ccc2O)cc1
TGI (CCRF-CEM leukemia): > 100 µM
TGI (DU-145 prostate): > 100 µM

CSc1nc[nH]c1C(N)=S
TGI (DU-145 prostate): > 100 µM

C(=C\c1c2oc(-c3ccccc3)cc(-c3ccccc3)c-2c2ccccc12)/C=C1\c2ccccc2-c2c(-c3ccccc3)cc(-c3ccccc3)[o+]c21
TGI (CCRF-CEM leukemia): > 100 µM
TGI (DLD-1 colon): > 100 µM
TGI (DMS 114 small cell lung): > 100 µM
TGI (DMS 273 small cell lung): > 100 µM
TGI (KM20L2 colon): > 100 µM
TGI (LXFL 529 NSCLC): > 100 µM
TGI (M19-MEL melanoma): > 100 µM
TGI (SNB-78 CNS): > 100 µM
TGI (XF 498 CNS): > 100 µM

c1ccc(Nc2nnc(CCCCCCCCc3nnc(Nc4ccccc4)o3)o2)cc1
TGI (CCRF-CEM leukemia): > 100 µM
TGI (DU-145 prostate): > 100 µM

CCOC(=O)C1CCC(=O)N1C(=O)c1ccc(Cl)cc1 (stereo not given)
TGI (CCRF-CEM leukemia): > 100 µM
TGI (DU-145 prostate): > 100 µM

O=C(/C(=C/c1ccc(O)cc1)c1ccccc1)c1ccccc1
TGI (CCRF-CEM leukemia): 80.2 µM
TGI (DLD-1 colon): 31 µM
TGI (DMS 114 small cell lung): 24.4 µM
TGI (HOP-18 NSCLC): 33.4 µM
TGI (LXFL 529 NSCLC): 35.7 µM
TGI (M19-MEL melanoma): 32.4 µM
TGI (RXF-631 renal): 29.3 µM
TGI (SNB-78 CNS): 70.9 µM
